Data set [1] is described as follows: Food consumption of SHROB rats fed drug-supplemented chow. The class given is in vivo, rat. The note with it: throughout the experiment, FIG. 2. The protocol:
(§1) Animals: Obese spontaneously […] rats with a naturally occurring knockout of the leptin receptor (SHROB; Koletsky et al., pp. 143-158 in: Sima AAF and Shafrir (eds) Animal Models of Diabetes: A Primer, Harwood, Singapore, 2001) were used. Adult (4-5 months old) male and female SHROB were maintained essentially as described by Velliquette and Emsberger (JPET 307: 1104-1111, 2003). Briefly, animals were housed individually at a constant temperature of 21° C. on a 12:12 hours light/dark cycle. The animals were given ad libitum access to food (Teklad 8664 rat chow) and were maintained for a period of 60 days. The procedures were carried out in accordance with applicable laws and accepted guidelines for animal welfare.
(§2) Either CPSSA or captopril were dissolved in a 20% ethanol solution, chilled on ice, and were then thoroughly mixed with powdered rat chow in equivalent molar amounts of 1.107 and 0.827 gram/kg, respectively.
(§3) Eight SHROB rats (4 males, 4 females) were used in each treatment group. Animals were fed with chow supplemented with either CPSSA or captopril, or with standard (non-supplemented) chow diet, which served as a control. Measurements of body weight, food consumption and blood pressure were conducted 3 times a week for the duration of the experiment.

For data set [2] the following is noted: cited from earlier work.
The nature of data set [3]: Systolic blood pressure of SHROB rats fed drug-supplemented chow. The data set is classed as in vivo, rat. The protocol: Briefly, animals were housed individually at a constant temperature of 21° C. on a 12:12 hours light/dark cycle. […] The procedures were carried out in accordance with applicable laws and accepted guidelines for animal welfare.
as §3

Data set [4] is described as follows: Body weight gain of SHROB rats fed drug-supplemented chow. The data set is classed as in vivo, rat. The note with it: for effect on body weight gain: compared with non-treated control, FIG. 1. The protocol:
as §1, §2, §3

For data set [5] the following is noted: in vivo; cited from earlier work.
The mark [6] stands for this setting: day 20, drug in chow ad libitum.
Setting [7] is: day 53, drug in chow ad libitum.

The values that follow come from patent publication US20090209613A1, “Use of allymercaptocaptopril for treating or preventing obesity and obesity related diseases” (Yeda Researc And Development Co. Ltd. at the Weizmann …, priority 2005, published 2009).

As to `C=CCSSC[C@H](C)C(=O)N1CCC[C@H]1C(=O)O` [CPSSA, Allylmercaptocaptopril], in data set [1], the food uptake entry is “no differences were observed in the food uptake”. In addition, the “stability in blood or plasma” value in data set [2] (blood or plasma of mammals) was “stable in blood or plasma of mammals”. Besides, the “reaction with serum proteins” value in data set [2] (serum proteins) is listed as “reacts very sluggishly with serum proteins”. Moreover, the “effect on blood pressure” value in data set [3] (FIG. 3) was “substantially reduced the blood pressure”. The “average systolic blood pressure” value in data set [3] (day 14) amounted to 165.6; in data set [3] (day 28), 146.8; in data set [3] (day 56), 140.3. The “effect on body weight gain” value in data set [4] is recorded as “effectively prevented body weight gain”. Also, the “average body weight gain” value is given as 0.6% in data set [4] (setting [6]) and −0.1% in data set [4] (setting [7]). Further, the blood pressure entry in data set [5] is reported as “significantly decreases blood pressure”. Further, the “serum level of insulin” value in data set [5] is reported as “reduces”. Moreover, the “serum level of triglycerides” value in data set [5] is “reduces”.
For `C[C@H](CS)C(=O)N1CCC[C@H]1C(=O)O` [captopril], in data set [1], the food uptake entry is “no differences were observed in the food uptake”. Moreover, the “average systolic blood pressure” value was 165.5 in data set [3] (day 14), 159.3 in data set [3] (day 28) and 159.7 in data set [3] (day 56). Besides, in data set [4], the “effect on body weight gain” value is recorded as “had no effect on body weight gain”. Also, the “average body weight gain” value in data set [4] (setting [6]) is given as 7.3%; in data set [4] (setting [7]), 11.8%.
